Measured values from the NIST ThermoML archive (doi:10.1021/je034259j).
± gives the expanded uncertainty stated by the source.

Details: Liquid; for mass density: 298.15 K; for mass density / molar volume: 101.33 kPa; for molar volume / vapor or sublimation pressure: 313.15 K; for molar volume: Vibrating tube method; for vapor or sublimation pressure: Ebulliometric method (Recirculating still)

Structure (SMILES) | mass density [kg/m3] | molar volume [m3/mol] | vapor or sublimation pressure [kPa]
ClCCCl [1,2-dichloroethane] | 1246.59 ± 0.41 | 8.1e-05 ± 1e-06 | 21.05 ± 0.2
ClCCBr [1-bromo-2-chloroethane] | 1727.88 ± 1.9 | 8.4e-05 ± 1e-06 | 8.91 ± 0.1
ClCBr [bromochloromethane] | 1924.88 ± 1.3 | 6.9e-05 ± 1e-06 | 37.28 ± 0.43
BrCBr [dibromomethane] | 2478.37 ± 2.3 | 7.1e-05 ± 1e-06 | 13.01 ± 0.15
CCOC(C)=O [ethyl acetate] | 894.97 ± 0.27 | 0.000101 ± 1e-06 | 25.3 ± 0.2
